Source: patent US10981926B2 (Janssen Pharmaceutica NV, priority 2016, dated 2021)

Legend:
[1] = target: T1, wild-type Androgen Receptor (AR-wt) (Homo sapiens (Human), UniProt P10275); assay: LNCaP-AR-wt ANT reporter assay (antagonist mode); assay type: cell-based; settings: for IC50: read-out: LNCaP-AR-wt ANT pIC50 (converted); for Emax: read-out: LNCaP-AR-wt ANT MAX % Inh
[2] = target: T1, wild-type Androgen Receptor (AR-wt); assay: LNCaP-AR-wt AG reporter assay (agonist mode); assay type: cell-based; settings: for EC50: pEC50 = −Log10(EC50 in Molar), read-out: LNCaP-AR-wt AG pEC50 (converted); for Emax: read-out: LNCaP-AR-wt AG MAX % Stim
[3] = target: T2, F876L mutant Androgen Receptor (AR-F876L) (Homo sapiens (Human), UniProt P10275, F877L); assay: LNCaP-AR-F876L ANT reporter assay (antagonist mode); assay type: cell-based; settings: for IC50: read-out: LNCaP-AR-F876L ANT pIC50 (converted); for Emax: read-out: LNCaP-AR-F876L ANT MAX % Inh
[4] = target: T2, F876L mutant Androgen Receptor (AR-F876L); assay: LNCaP-AR-F876L AG reporter assay (agonist mode); assay type: cell-based; settings: for EC50: pEC50 = −Log10(EC50 in Molar), read-out: LNCaP-AR-F876L AG pEC50 (converted); for Emax: read-out: LNCaP-AR-F876L AG MAX % Stim
rGABA-gated Cl− channel = assay: GABA-Gated Cl Channel Antagonist Radioligand Binding Assay; set-up: species or system rat; settings: 10 μM single point, [35S]-TBPS, cerebral cortex membrane homogenates
Description: GABA-gated C1 Chanel assays were performed at CEREP according to the following method. Membrane homogenates of cerebral cortex (120 μg protein) were incubated for 120 min at 22° C. with 3 nM […] in the absence or presence of the test compound in a buffer containing 50 mM Na2HPO4/KH2PO4 (pH 7.4) and 500 mM NaCl. Nonspecific binding was determined in the presence of 20 μM picrotoxinin. Following incubation, the samples were filtered rapidly under vacuum through glass fiber filters (GF/B, Packard) presoaked with 0.3% PEI and rinsed several times with ice-cold 50 mM Tris-HCl using a 96-sample cell harvester (Unifilter, Packard). The filters were dried then counted for radioactivity in a scintillation counter (Topcount, Packard) using a scintillation cocktail (Microscint 0, Packard). The results are expressed as a percent inhibition of the control radio ligand specific binding. The standard reference compound is picrotoxinin, which was tested in each experiment at several concentrations to obtain a competition curve from which its IC50 was calculated. In this assay, the following representative compounds disclosed herein had recorded activities at a 10 μM single point concentration in the GABA-gated Cl— Channel Binding Assay.

[5] = antagonist mode, pIC50 = −Log10(IC50 in Molar)
[6] = maximum % inhibition of R1881 control response over the tested concentration range
[7] = maximum % stimulation (agonist response) over the tested concentration range
[8] = antagonist mode, maximum % inhibition of R1881 control response over tested concentration range
[9] = agonist mode, maximum % stimulation over tested concentration range

T1 sequence (P10275 whole entry): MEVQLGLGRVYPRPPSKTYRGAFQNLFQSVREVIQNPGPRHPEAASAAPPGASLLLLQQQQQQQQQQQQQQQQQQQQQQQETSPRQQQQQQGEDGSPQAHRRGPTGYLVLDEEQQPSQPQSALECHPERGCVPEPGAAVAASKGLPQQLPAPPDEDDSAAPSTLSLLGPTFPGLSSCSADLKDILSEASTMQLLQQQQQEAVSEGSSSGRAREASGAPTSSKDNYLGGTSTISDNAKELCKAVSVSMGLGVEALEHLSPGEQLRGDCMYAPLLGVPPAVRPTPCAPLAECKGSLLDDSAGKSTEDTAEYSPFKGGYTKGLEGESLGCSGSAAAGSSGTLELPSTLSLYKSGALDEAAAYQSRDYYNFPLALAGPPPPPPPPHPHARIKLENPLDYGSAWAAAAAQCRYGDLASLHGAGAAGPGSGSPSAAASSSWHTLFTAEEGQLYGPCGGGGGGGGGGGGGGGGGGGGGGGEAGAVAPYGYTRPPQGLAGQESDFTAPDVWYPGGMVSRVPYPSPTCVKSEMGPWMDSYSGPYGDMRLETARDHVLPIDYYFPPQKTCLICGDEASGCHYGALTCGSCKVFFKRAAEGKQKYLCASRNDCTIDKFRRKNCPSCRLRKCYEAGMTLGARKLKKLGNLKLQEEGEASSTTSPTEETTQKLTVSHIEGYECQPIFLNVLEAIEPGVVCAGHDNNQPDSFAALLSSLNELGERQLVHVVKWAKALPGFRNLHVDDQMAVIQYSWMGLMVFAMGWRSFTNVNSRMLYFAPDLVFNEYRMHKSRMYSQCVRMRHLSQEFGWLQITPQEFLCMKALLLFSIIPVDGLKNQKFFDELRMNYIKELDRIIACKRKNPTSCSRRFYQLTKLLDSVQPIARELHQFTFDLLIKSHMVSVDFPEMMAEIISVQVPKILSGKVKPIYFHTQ
T2 sequence (P10275 whole entry F877L): as the sequence (P10275 whole entry) above, with F877L counted along it

Compound	IC50 [1, 5] [µM]	Emax [1, 6] [%]	EC50 ([2]; agonist mode) [µM]	Emax [2, 7] [%]	IC50 [3, 5] [µM]	Emax [3, 6] [%]	EC50 ([4]; agonist mode) [µM]	Emax [4, 7] [%]	rGABA-gated Cl− channel % inh @10 μM (rGABA-gated Cl− channel) [%]	LNCaP-AR-wt ANT pIC50 [1, 5]	LNCaP-AR-F876L ANT pIC50 [3, 5]	Emax [1, 8] [%]	Emax [2, 9] [%]	Emax [3, 8] [%]	Emax [4, 9] [%]
N#Cc1ncc(N2C(=O)C3(CCC3)N(c3ccc(OC4CCN(CCO)CC4)cc3)C2=S)cc1Cl [Cpd 50, 3-chloro-5-[8-[4-[[1-(2-hydroxyethyl)-4-piperidyl]oxy]phenyl]-5-oxo-7-thioxo-6,8-diazaspiro[3.4]octan-6-yl]pyridine-2-carbonitrile]	0.0162	101	> 15.1	0.1	0.00871	98	> 15.1	1.4	13.2	–	–	–	–	–	–
N#Cc1ncc(N2C(=O)C3(CCC3)N(c3ccc(OC4CCNCC4)nc3)C2=S)cc1Cl [Cpd 64, 3-chloro-5-[5-oxo-8-[6-(4-piperidyloxy)-3-pyridyl]-7-thioxo-6,8-diazaspiro[3.4]octan-6-yl]pyridine-2-carbonitrile]	–	101	> 15.1	-0.2	–	100	> 15.1	0.1	5.8	7.30	7.33	–	–	–	–
C[C@@H]1OC(c2ccc(N3C(=S)N(c4cnc(C#N)c(C(F)(F)F)c4)C(=O)C34CCC4)cc2)=C[C@H](O)[C@H]1O [Cpd 135, 5-(5-(4-((2S,3R,4S)-3,4-dihydroxy-2-methyl-3,4-dihydro-2H-pyran-6-yl)phenyl)-8-oxo-6-thioxo-5,7-diazaspiro[3.4]octan-7-yl)-3-(trifluoromethyl)picolinonitrile]	0.389	104	> 15.1	0.1	0.155	102	> 15.1	-0.1	99.6	–	–	–	–	–	–
N#Cc1ncc(N2C(=O)C3(CCC3)N(c3ccc(OCCN4CC5(COC5)C4)cc3)C2=S)cc1C(F)(F)F [Cpd 105, 5-[8-[4-[2-(6-oxa-2-azaspiro[3.3]heptan-2-yl)ethoxy]phenyl]-5-oxo-7-thioxo-6,8-diazaspiro[3.4]octan-6-yl]-3-(trifluoromethyl)pyridine-2-carbonitrile]	0.123	100	> 15.1	0.1	0.0661	97.6	> 15.1	0.8	23.9	–	–	–	–	–	–
CCOC(=O)N1CCN(Cc2ccc(N3C(=S)N(c4cnc(C#N)c(C(F)(F)F)c4)C(=O)C34CCC4)cc2)CC1 [Cpd 55, Ethyl 4-[[4-[6-[6-cyano-5-(trifluoromethyl)-3-pyridyl]-5-oxo-7-thioxo-6,8-diazaspiro[3.4]octan-8-yl]phenyl]methyl]piperazine-1-carboxylate]	0.0724	104	> 15.1	0.6	0.0407	101	> 15.1	0.5	100.0	–	–	–	–	–	–
Cn1cc(N2C(=S)N(c3cnc(C#N)c(C(F)(F)F)c3)C(=O)C23CCC3)ccc1=O [Cpd 133, 5-(5-(1-methyl-6-oxo-1,6-dihydropyridin-3-yl)-8-oxo-6-thioxo-5,7-diazaspiro[3.4]octan-7-yl)-3-(trifluoromethyl)picolinonitrile]	1.58	98.3	> 15.1	0.7	0.977	99	> 15.1	0.6	−8.5	–	–	–	–	–	–
N#Cc1ncc(N2C(=O)C3(CCC3)N(c3ccc(C4=CCCC(CO)O4)cc3)C2=S)cc1C(F)(F)F (centres unmarked) [Cpd 103, 5-(5-(4-(2-(hydroxymethyl)-3,4-dihydro-2H-pyran-6-yl)phenyl)-8-oxo-6-thioxo-5,7-diazaspiro[3.4]octan-7-yl)-3-(trifluoromethyl)picolinonitrile]	–	–	–	–	–	–	–	–	82.7	–	–	–	–	–	–
N#Cc1ncc(N2C(=O)C3(CCC3)N(c3ccc(OCC4(N)COC4)cc3)C2=S)cc1C(F)(F)F [Cpd 145, 5-[8-[4-[(3-aminooxetan-3-yl)methoxy]phenyl]-5-oxo-7-thioxo-6,8-diazaspiro[3.4]octan-6-yl]-3-(trifluoromethyl)pyridine-2-carbonitrile]	0.178	101	> 15.1	0.5	0.302	98.8	> 15.1	1.8	–	–	–	–	–	–	–
CN1CCC(Oc2ccc(N3C(=S)N(c4cnc(C#N)c(Cl)c4)C(=O)C34CCC4)cn2)CC1 [Cpd 26]	0.055	101	> 15.1	0.4	0.0692	100	> 15.1	0.5	–	–	–	–	–	–	–
Cc1cc(N2C(=O)C3(CCC3)N(c3ccc(-c4cnn(C(N)=O)c4)cc3)C2=S)cnc1C#N [Cpd 7, 4-{4-[7-(6-cyano-5-methyl(3-pyridyl))-8-oxo-6-thioxo-5,7-diazaspiro[3.4]oct-5-yl]phenyl}pyrazolecarboxamide]	0.288	99.1	> 15.1	0.3	0.135	98.2	> 15.1	2.8	–	–	–	–	–	–	–
CN1CCC[C@@H](CNC(=O)c2ccc(N3C(=S)N(c4cnc(C#N)c(C(F)(F)F)c4)C(=O)C34CCC4)cc2F)C1 [Cpd 200, 4-[6-[6-cyano-5-(trifluoromethyl)-3-pyridyl]-5-oxo-7-thioxo-6,8-diazaspiro[3.4]octan-8-yl]-2-fluoro-N-[[(3S)-1-methyl-3-piperidyl]methyl]benzamide]	0.708	–	> 15.1	–	0.794	–	> 15.1	–	–	–	–	99.6	0.4	99.1	0.5
CN1CC[C@@H](CNC(=O)c2ccc(N3C(=S)N(c4cnc(C#N)c(C(F)(F)F)c4)C(=O)C34CCC4)cc2F)C1 [Cpd 205, 4-[6-[6-cyano-5-(trifluoromethyl)-3-pyridyl]-5-oxo-7-thioxo-6,8-diazaspiro[3.4]octan-8-yl]-2-fluoro-N-[[(3S)-1-methylpyrrolidin-3-yl]methyl]benzamide]	1.1	–	> 15.1	–	0.708	–	> 15.1	–	–	–	–	101	-0.1	100	0.1
COc1cc(N2C(=O)C3(CCC3)N(c3ccc4nn(C5CCNCC5)cc4c3)C2=S)cnc1C#N [Cpd 214, 3-methoxy-5-[5-oxo-8-[2-(4-piperidyl)indazol-5-yl]-7-thioxo-6,8-diazaspiro[3.4]octan-6-yl]pyridine-2-carbonitrile]	0.288	–	> 15.1	–	0.219	–	> 15.1	–	–	–	–	100	0.3	99.9	0
N#Cc1ncc(N2C(=O)C3(CCC3)N(c3ccc4[nH]c(CCO)nc4c3)C2=S)cc1C(F)(F)F	1.74	–	> 15.1	–	0.832	–	> 15.1	–	–	–	–	0	0.4	100	0.1
N#Cc1ncc(N2C(=O)C3(CCC3)N(c3ccc(O[C@@H]4CCN[C@H](CO)C4)cc3)C2=S)cc1C(F)(F)F (racemic) [Cpd 223, 5-[8-(2SR,4RS)[4-[[2-(hydroxymethyl)-4-piperidyl]oxy]phenyl]-5-oxo-7-thioxo-6,8-diazaspiro[3.4]octan-6-yl]-3-(trifluoromethyl)pyridine-2-carbonitrile]	0.372	–	> 15.1	–	0.229	–	> 15.1	–	–	–	–	101	0.5	100	0.4
